Patent US8969356B2, “Compounds useful as inhibitors of ATR kinase” (Vertex Pharmaceuticals Incorporated, priority 2010, dated 2015)

Target: T1, ATR kinase (Homo sapiens, UniProt Q13535)
T1 construct: Assays were carried out at 25° C. in the presence of 5 nM full-length ATR
Test: ATR Inhibition Assay (radioactive-phosphate incorporation)
Format: biochemical
Description: Compounds were screened for their ability to inhibit ATR kinase using a radioactive-phosphate incorporation assay. Assays were carried out in a mixture of 50 mM Tris/HCl (pH 7.5), 10 mM MgCl2 and 1 mM DTT. Final substrate concentrations were 10 μM [γ-33P]ATP (3mCi 33P ATP/mmol ATP, Perkin Elmer) and 800 μM target peptide ([…] (SEQ. ID NO: 1)).
Assays were carried out at 25° C. in the presence of 5 nM full-length ATR. An assay stock buffer solution was prepared containing all of the reagents listed above, with the exception of ATP and the test compound of interest. 13.5 μL of the stock solution was placed in a 96 well plate followed by addition of 2 μL of DMSO stock containing serial dilutions of the test compound (typically starting from a final concentration of 15 μM with 3-fold serial dilutions) in duplicate (final DMSO concentration 7%). The plate was pre-incubated for 10 minutes at 25° C. and the reaction initiated by addition of 15 μL [γ-33P]ATP (final concentration 10 μM).
The reaction was stopped after […] by the addition of 30 μL 0.1M phosphoric acid containing 2 mM ATP. A multiscreen phosphocellulose filter 96-well plate (Millipore, Cat no. MAPHN0B50) was pretreated with 100 μL 0.2M phosphoric acid prior to the addition of 45 μL of the stopped assay mixture. The plate was washed with 5×200 μL 0.2M phosphoric acid. After drying, 100 μL Optiphase ‘SuperMix’ liquid scintillation cocktail (Perkin Elmer) was added to the well prior to scintillation counting (1450 Microbeta Liquid Scintillation Counter, Wallac).
After removing mean background values for all of the data points, Ki(app) data were calculated from non-linear regression analysis of the initial rate data using the Prism software package (GraphPad Prism version 3.0cx for Macintosh, GraphPad Software, San Diego Calif., USA).

T1 sequence (Q13535 whole entry): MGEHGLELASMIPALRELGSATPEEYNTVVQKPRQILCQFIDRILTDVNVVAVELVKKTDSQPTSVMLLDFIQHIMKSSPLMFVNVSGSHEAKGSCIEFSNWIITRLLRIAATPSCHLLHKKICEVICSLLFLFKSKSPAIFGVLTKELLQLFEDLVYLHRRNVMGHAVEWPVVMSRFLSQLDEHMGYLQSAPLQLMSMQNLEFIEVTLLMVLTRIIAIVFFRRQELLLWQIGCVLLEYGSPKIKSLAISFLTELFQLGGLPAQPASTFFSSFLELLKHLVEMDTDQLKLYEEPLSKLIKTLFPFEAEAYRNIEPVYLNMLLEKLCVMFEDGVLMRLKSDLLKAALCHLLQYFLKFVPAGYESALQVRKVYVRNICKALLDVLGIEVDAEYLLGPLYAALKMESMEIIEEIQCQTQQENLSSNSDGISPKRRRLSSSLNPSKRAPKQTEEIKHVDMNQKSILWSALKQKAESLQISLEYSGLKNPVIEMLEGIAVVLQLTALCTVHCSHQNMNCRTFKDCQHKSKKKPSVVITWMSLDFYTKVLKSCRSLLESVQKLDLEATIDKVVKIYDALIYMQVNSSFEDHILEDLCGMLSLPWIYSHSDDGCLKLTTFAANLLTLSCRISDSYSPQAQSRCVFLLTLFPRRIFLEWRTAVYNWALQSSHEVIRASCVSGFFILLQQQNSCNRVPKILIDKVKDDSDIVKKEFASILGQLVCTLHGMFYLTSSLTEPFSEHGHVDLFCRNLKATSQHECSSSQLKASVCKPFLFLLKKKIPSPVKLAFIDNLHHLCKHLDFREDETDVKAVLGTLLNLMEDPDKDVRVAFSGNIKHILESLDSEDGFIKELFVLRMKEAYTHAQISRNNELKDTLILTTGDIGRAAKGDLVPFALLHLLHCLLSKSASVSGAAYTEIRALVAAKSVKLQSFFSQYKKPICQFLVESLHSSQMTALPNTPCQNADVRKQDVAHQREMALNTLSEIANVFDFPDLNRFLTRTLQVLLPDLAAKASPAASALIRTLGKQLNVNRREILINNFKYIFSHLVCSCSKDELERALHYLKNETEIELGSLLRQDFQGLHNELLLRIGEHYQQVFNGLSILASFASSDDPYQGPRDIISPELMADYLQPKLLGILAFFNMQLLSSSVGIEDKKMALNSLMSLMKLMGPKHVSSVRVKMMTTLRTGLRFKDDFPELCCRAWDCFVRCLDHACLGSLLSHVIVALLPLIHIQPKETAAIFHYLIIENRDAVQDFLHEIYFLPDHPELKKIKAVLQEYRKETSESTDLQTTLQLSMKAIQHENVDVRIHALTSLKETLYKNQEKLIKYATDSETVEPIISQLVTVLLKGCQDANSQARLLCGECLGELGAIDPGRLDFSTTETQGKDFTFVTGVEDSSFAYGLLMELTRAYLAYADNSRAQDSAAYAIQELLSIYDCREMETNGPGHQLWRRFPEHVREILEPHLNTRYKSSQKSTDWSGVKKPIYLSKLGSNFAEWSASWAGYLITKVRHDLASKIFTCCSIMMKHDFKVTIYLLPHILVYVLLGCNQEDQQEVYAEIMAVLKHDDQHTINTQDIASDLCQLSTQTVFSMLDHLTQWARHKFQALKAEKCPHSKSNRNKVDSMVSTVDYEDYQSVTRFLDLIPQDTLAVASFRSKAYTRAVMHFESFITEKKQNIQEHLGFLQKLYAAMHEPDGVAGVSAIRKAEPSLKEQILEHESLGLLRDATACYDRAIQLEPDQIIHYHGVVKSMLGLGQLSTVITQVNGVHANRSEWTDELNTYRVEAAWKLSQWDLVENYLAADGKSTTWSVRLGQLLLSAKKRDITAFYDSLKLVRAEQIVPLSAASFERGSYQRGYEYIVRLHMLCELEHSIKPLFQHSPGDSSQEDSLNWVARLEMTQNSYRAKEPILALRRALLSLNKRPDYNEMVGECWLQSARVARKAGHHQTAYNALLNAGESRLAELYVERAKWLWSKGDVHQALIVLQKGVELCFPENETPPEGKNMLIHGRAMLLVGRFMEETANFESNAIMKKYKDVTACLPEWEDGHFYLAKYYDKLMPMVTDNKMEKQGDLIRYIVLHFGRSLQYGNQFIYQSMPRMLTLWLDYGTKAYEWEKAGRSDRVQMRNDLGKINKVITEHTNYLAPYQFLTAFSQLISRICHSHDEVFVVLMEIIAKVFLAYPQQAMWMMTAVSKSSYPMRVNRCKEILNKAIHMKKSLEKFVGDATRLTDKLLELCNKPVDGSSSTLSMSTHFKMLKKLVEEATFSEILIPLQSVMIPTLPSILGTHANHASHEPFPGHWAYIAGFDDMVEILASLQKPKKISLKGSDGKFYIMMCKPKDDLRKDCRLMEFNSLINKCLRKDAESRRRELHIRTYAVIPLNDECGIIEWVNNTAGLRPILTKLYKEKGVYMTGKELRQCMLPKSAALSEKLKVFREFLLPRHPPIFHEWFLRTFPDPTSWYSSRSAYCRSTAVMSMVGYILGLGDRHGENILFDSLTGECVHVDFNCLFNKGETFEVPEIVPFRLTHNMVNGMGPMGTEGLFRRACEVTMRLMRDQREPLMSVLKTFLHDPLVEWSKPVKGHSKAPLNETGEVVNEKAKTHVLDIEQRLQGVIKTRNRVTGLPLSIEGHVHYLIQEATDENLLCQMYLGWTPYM

| Compound | Ki [nM] |
| --- | --- |
| CC(C)S(=O)(=O)c1ccc(-c2cnc(N)c(C#C[C@@H](C)O)n2)cc1 [Compound I-4, (2R)-4-[3-Amino-6-(4-isopropylsulfonylphenyl)pyrazin-2-yl]but-3-yn-2-ol] | 100 to 1000 |
| C#Cc1nc(-c2ccc(S(=O)(=O)C(C)C)cc2)cnc1N [Compound I-5, 3-Ethynyl-5-(4-isopropylsulfonylphenyl)pyrazin-2-amine] | 100 to 1000 |
| CC(C)S(=O)(=O)c1ccc(-c2cnc(N)c(C#CC3CCCCC3)n2)cc1 [Compound I-8, 3-(2-Cyclohexylethynyl)-5-(4-isopropylsulfonylphenyl)pyrazin-2-amine] | 100 to 1000 |
| CC(C)S(=O)(=O)c1ccc(-c2cnc(N)c(C#CCc3ccccc3)n2)cc1 [Compound I-10, 5-(4-isopropylsulfonylphenyl)-3-(3-phenylprop-1-ynyl)pyrazin-2-amine] | 1000 to 13000 |
| CC(C)S(=O)(=O)c1ccc(-c2cnc(N)c(C#Cc3ccc(C#N)cc3)n2)cc1 [Compound I-15, 4-[2-[3-Amino-6-(4-isopropylsulfonylphenyl)pyrazin-2-yl]ethynyl]benzonitrile] | 1000 to 13000 |
| Nc1ncc(-c2ccc(S(=O)(=O)C3CCNCC3)cc2)nc1C#Cc1cccc(O)c1 [Compound I-17, 3-[2-[3-Amino-6-[4-(4-piperidylsulfonyl)phenyl]pyrazin-2-yl]ethynyl]phenol] | ≤ 100 |
| N#Cc1ccccc1-c1cnc(N)c(C#Cc2cccc(O)c2)n1 [Compound I-18, 2-[5-Amino-6-[2-(3-hydroxyphenyl)ethynyl]pyrazin-2-yl]benzonitrile] | ≤ 100 |
| COc1ccccc1C#Cc1nc(-c2ccc(S(=O)(=O)C(C)C)cc2)cnc1N [Compound I-19, 5-(4-Isopropylsulfonylphenyl)-3-[2-(2-methoxyphenyl)ethynyl]pyrazin-2-amine] | 100 to 1000 |
| CC(C)S(=O)(=O)c1ccc(-c2cnc(N)c(C#Cc3cccc(OCCCN(C)C)c3)n2)cc1 [Compound I-20, 3-[2-[3-[3-(Dimethylamino)propoxy]phenyl]ethynyl]-5-(4-isopropylsulfonylphenyl)pyrazin-2-amine] | ≤ 100 |
| C[S+]([O-])c1ccccc1-c1cnc(N)c(C#Cc2cccc(O)c2)n1 (stereo not drawn) [Compound I-23, 3-[2-[3-Amino-6-(2-methylsulfinylphenyl)pyrazin-2-yl]ethynyl]phenol] | ≤ 100 |
| CC(C)S(=O)(=O)c1ccc(-c2cnc(N)c(C#Cc3cccc(OCCCN)c3)n2)cc1 [Compound I-24, 3-[2-[3-(3-Aminopropoxy)phenyl]ethynyl]-5-(4-isopropylsulfonylphenyl)pyrazin-2-amine] | ≤ 100 |
| CC(C)S(=O)(=O)c1ccc(-c2cnc(N)c(C#Cc3cccc(OCCN)c3)n2)cc1 [Compound I-25, 3-[2-[3-(2-Aminoethoxy)phenyl]ethynyl]-5-(4-isopropylsulfonylphenyl)pyrazin-2-amine] | ≤ 100 |
| CC(C)S(=O)(=O)c1ccc(-c2cnc(N)c(C#Cc3cccc(OCCN(C)C)c3)n2)cc1 [Compound I-26, 3-[2-[3-(2-Dimethylaminoethyloxy)phenyl]ethynyl]-5-(4-isopropylsulfonylphenyl)pyrazin-2-amine] | 100 to 1000 |
| CC(C)S(=O)(=O)c1ccc(-c2cnc(N)c(C#CC3CC3)n2)cc1 [Compound I-27, 3-(2-Cyclopropylethynyl)-5-(4-isopropylsulfonylphenyl)pyrazin-2-amine] | 100 to 1000 |
| CNCc1cccc(C#Cc2nc(-c3ccc(S(=O)(=O)C(C)C)cc3)cnc2N)c1 [Compound I-28, 5-(4-Isopropylsulfonylphenyl)-3-[2-[3-(methylaminomethyl)phenyl]ethynyl]pyrazin-2-amine] | ≤ 100 |
| CC(C)S(=O)(=O)c1ccc(-c2cnc(N)c(C#C[C@H](C)O)n2)cc1 [Compound I-29, (2S)-4-[3-Amino-6-(4-isopropylsulfonylphenyl)pyrazin-2-yl]but-3-yn-2-ol] | 1000 to 13000 |
| CCC(=O)N1CC=C(c2cnc(N)c(C#Cc3cccc(O)c3)n2)CC1 [Compound I-30, 1-[4-[5-Amino-6-[2-(3-hydroxyphenyl)ethynyl]pyrazin-2-yl]-3,6-dihydro-2H-pyridin-1-yl]propan-1-one] | ≤ 100 |
| CC(C)S(=O)(=O)c1ccc(-c2cnc(N)c(C#Cc3ccsc3)n2)cc1 [Compound I-31, 5-(4-Isopropylsulfonylphenyl)-3-[2-(3-thienyl)ethynyl]pyrazin-2-amine] | 100 to 1000 |
| CC(C)S(=O)(=O)c1ccc(-c2cnc(N)c(C#Cc3ccncc3)n2)cc1 [Compound I-32, 5-(4-Isopropylsulfonylphenyl)-3-[2-(4-pyridyl)ethynyl]pyrazin-2-amine] | ≤ 100 |
| CC(C)S(=O)(=O)c1ccc(-c2cnc(N)c(C#Cc3cccc(OCCN4CCOCC4)c3)n2)cc1 [Compound I-36, 5-(4-Isopropylsulfonylphenyl)-3-[2-[3-(2-morpholinoethoxy)phenyl]ethynyl]pyrazin-2-amine] | 100 to 1000 |

Other lines, results leading:

| Ki [nM] | Compound |
| --- | --- |
| ≤ 100 | CC(C)S(=O)(=O)c1ccc(-c2cnc(N)c(C#Cc3cccc(F)c3)n2)cc1 [Compound I-1, 3-[2-(3-Fluorophenyl)ethynyl]-5-(4-isopropylsulfonylphenyl)pyrazin-2-amine] |
| ≤ 100 | CC(C)S(=O)(=O)c1ccc(-c2cnc(N)c(C#Cc3cccc4ccccc34)n2)cc1 [Compound I-2, 5-(4-Isopropylsulfonylphenyl)-3-[2-(1-naphthyl)ethynyl]pyrazin-2-amine] |
| ≤ 100 | COc1cccc(C#Cc2nc(-c3ccc(S(=O)(=O)C(C)C)cc3)cnc2N)c1 [Compound I-3, 5-(4-Isopropylsulfonylphenyl)-3-[2-(3-methoxyphenyl)ethynyl]pyrazin-2-amine] |
| ≤ 100 | CC(=O)Nc1cccc(C#Cc2nc(-c3ccc(S(=O)(=O)C(C)C)cc3)cnc2N)c1 [Compound I-6, N-[3-[2-[3-Amino-6-(4-isopropylsulfonylphenyl)pyrazin-2-yl]ethynyl]phenyl]acetamide] |
| ≤ 100 | CC(C)S(=O)(=O)c1ccc(-c2cnc(N)c(C#Cc3cccc(Cl)c3)n2)cc1 [Compound I-9, 3-[2-(3-Chlorophenyl)ethynyl]-5-(4-isopropylsulfonylphenyl)pyrazin-2-amine] |
| ≤ 100 | Cc1cccc(C#Cc2nc(-c3ccc(S(=O)(=O)C(C)C)cc3)cnc2N)c1 [Compound I-11, 5-(4-Isopropylsulfonylphenyl)-3-[2-(m-tolyl)ethynyl]pyrazin-2-amine] |
| ≤ 100 | CC(C)S(=O)(=O)c1ccc(-c2cnc(N)c(C#Cc3ccccc3Cl)n2)cc1 [Compound I-12, 3-[2-(2-Chlorophenyl)ethynyl]-5-(4-isopropylsulfonylphenyl)pyrazin-2-amine] |
| ≤ 100 | CC(C)S(=O)(=O)c1ccc(-c2cnc(N)c(C#Cc3cccnc3)n2)cc1 [Compound I-13, 5-(4-Isopropylsulfonylphenyl)-3-[2-(3-pyridyl)ethynyl]pyrazin-2-amine] |
| ≤ 100 | CC(C)S(=O)(=O)c1ccc(-c2cnc(N)c(C#Cc3ccc(F)cc3)n2)cc1 [Compound I-14, 3-[2-(4-Fluorophenyl)ethynyl]-5-(4-isopropylsulfonylphenyl)pyrazin-2-amine] |
| ≤ 100 | CC(C)n1cc(-c2cnc(N)c(C#Cc3cccc(O)c3)n2)ccc1=O [Compound I-16, 5-[5-Amino-6-[2-(3-hydroxyphenyl)ethynyl]pyrazin-2-yl]-1-isopropyl-pyridin-2-one] |
